Columns and labels:
Salmonella typhimurium [1] = assay: Antimicrobial activity against Salmonella typhimurium C7731 assessed as bacterial killing measured after 16 hrs incubation; assay type: functional, Salmonella enterica subsp. enterica serovar Typhimurium; conditions: Salmonella enterica
Salmonella typhimurium [2] = assay: Antimicrobial activity against Salmonella typhimurium C7731 assessed as absence bacterial growth measured after 18 to 24 hrs incubation by NCCLS method; assay type: functional, Salmonella enterica subsp. enterica serovar Typhimurium; conditions: Salmonella enterica, time 18-24 hrs
[3] = Hemolytic activity in human RBC at effective concentration at 128 uM measured after 1 hr by microplate reader relative to control; assay type: toxicity, cell-based, Erythrocyte; conditions: human red blood cells (erythrocytes), read-out: Activity
Enterococcus faecalis [4] = assay: Antimicrobial activity against Enterococcus faecalis 29212 assessed as bacterial killing measured after 16 hrs incubation; assay type: functional
Staphylococcus aureus [5] = assay: Antimicrobial activity against Staphylococcus aureus 29213 assessed as absence bacterial growth measured after 18 to 24 hrs incubation by NCCLS m; assay type: functional; conditions: time 18-24 hrs
Enterococcus faecalis [6] = assay: Antimicrobial activity against Enterococcus faecalis 29212 assessed as absence bacterial growth measured after 18 to 24 hrs incubation by NCCLS method; assay type: functional; conditions: time 18-24 hrs
Escherichia coli [7] = assay: Antimicrobial activity against Escherichia coli 25922 assessed as absence bacterial growth measured after 18 to 24 hrs incubation in presence of ZnCl2 by NCCLS method; assay type: functional; conditions: time 18-24 hrs
Listeria monocytogenes [8] = assay: Antimicrobial activity against Listeria monocytogenes 1.10753 assessed as bacterial killing measured after 16 hrs incubation; assay type: functional
Escherichia coli [9] = assay: Antimicrobial activity against Escherichia coli 25922 assessed as absence bacterial growth measured after 18 to 24 hrs incubation in presence of NaCl by NCCLS method; assay type: functional; conditions: time 18-24 hrs
Listeria monocytogenes [10] = assay: Antimicrobial activity against Listeria monocytogenes 1.10753 assessed as absence bacterial growth measured after 18 to 24 hrs incubation by NCCLS method; assay type: functional; conditions: time 18-24 hrs
Escherichia coli [11] = assay: Antimicrobial activity against Escherichia coli 25922 assessed as absence bacterial growth measured after 18 to 24 hrs incubation in presence of 50% serum by NCCLS method; assay type: functional; conditions: time 18-24 hrs
Escherichia coli [12] = assay: Antimicrobial activity against Escherichia coli 25922 assessed as absence bacterial growth measured after 18 to 24 hrs incubation in presence of KCl by NCCLS method; assay type: functional; conditions: time 18-24 hrs
[13] = Antimicrobial activity against Salmonella pullorum C7913 assessed as absence bacterial growth measured after 18 to 24 hrs incubation by NCCLS method; assay type: functional, Salmonella enterica subsp. enterica serovar Pullorum; conditions: Salmonella enterica, time 18-24 hrs
Acinetobacter baumannii [14] = assay: Antimicrobial activity against Acinetobacter baumannii 1.6769 assessed as absence bacterial growth measured after 18 to 24 hrs incubation by NCCLS method; assay type: functional; conditions: time 18-24 hrs
Salmonella typhimurium [15] = assay: Antimicrobial activity against Salmonella typhimurium 14028 assessed as absence bacterial growth measured after 18 to 24 hrs incubation by NCCLS method; assay type: functional, Salmonella enterica subsp. enterica serovar Typhimurium; conditions: Salmonella enterica, time 18-24 hrs
[16] = Cytotoxicity against porcine IPEC-J2 cells assessed as cell survival rate measured after 8 hrs by MTT assay; assay type: toxicity, cell-based, Sus scrofa; conditions: pig
[17] = tested on: Staphylococcus epidermidis; assay: Antimicrobial activity against Staphylococcus epidermidis 12228 assessed as bacterial killing measured after 16 hrs incubation; assay type: functional
Escherichia coli [18] = assay: Antimicrobial activity against Escherichia coli K88 assessed as absence bacterial growth measured after 18 to 24 hrs incubation by NCCLS method; assay type: functional; conditions: time 18-24 hrs
Acinetobacter baumannii [19] = assay: Antimicrobial activity against Acinetobacter baumannii 1.6769 assessed as bacterial killing measured after 16 hrs incubation; assay type: functional
[20] = Antimicrobial activity against Salmonella pullorum C7913 assessed as bacterial killing measured after 16 hrs incubation; assay type: functional, Salmonella enterica subsp. enterica serovar Pullorum; conditions: Salmonella enterica
Pseudomonas aeruginosa [21] = assay: Antimicrobial activity against Pseudomonas aeruginosa 27853 assessed as absence bacterial growth measured after 18 to 24 hrs incubation by NCCLS method; assay type: functional; conditions: time 18-24 hrs
Staphylococcus aureus [22] = assay: Antimicrobial activity against Methicillin-resistant Staphylococcus aureus 43300 assessed as bacterial killing measured after 16 hrs incubation; assay type: functional
Escherichia coli [23] = assay: Antimicrobial activity against Escherichia coli 25922 assessed as absence bacterial growth measured after 18 to 24 hrs incubation in presence of NH4Cl by NCCLS method; assay type: functional; conditions: time 18-24 hrs
Pseudomonas aeruginosa [24] = assay: Antimicrobial activity against Pseudomonas aeruginosa 27853 assessed as bacterial killing measured after 16 hrs incubation; assay type: functional
[25] = Cytotoxicity against mouse RAW264.7 cells assessed as cell survival rate measured after 8 hrs by MTT assay; assay type: toxicity, cell-based
Staphylococcus aureus [26] = assay: Antimicrobial activity against Staphylococcus aureus 29213 assessed as absence bacterial growth measured after 18 to 24 hrs incubation by NCCLS method; assay type: functional; conditions: time 18-24 hrs
Escherichia coli [27] = assay: Antimicrobial activity against Escherichia coli 25922 assessed as absence bacterial growth measured after 18 to 24 hrs incubation in presence of FeCl3 by NCCLS method; assay type: functional; conditions: time 18-24 hrs
Staphylococcus aureus [28] = assay: Antimicrobial activity against Methicillin-resistant Staphylococcus aureus 43300 assessed as absence bacterial growth measured after 18 to 24 hrs incubation by NCCLS method; assay type: functional; conditions: time 18-24 hrs
Escherichia coli [29] = assay: Antimicrobial activity against Escherichia coli 25922 assessed as absence bacterial growth measured after 18 to 24 hrs incubation in presence of 12.5% serum by NCCLS method; assay type: functional; conditions: time 18-24 hrs
Staphylococcus aureus [30] = assay: Antimicrobial activity against Staphylococcus aureus 25923 assessed as bacterial killing measured after 16 hrs incubation; assay type: functional
Escherichia coli [31] = assay: Antimicrobial activity against Escherichia coli 25922 assessed as absence bacterial growth measured after 18 to 24 hrs incubation in presence of MgCl2 by NCCLS method; assay type: functional; conditions: time 18-24 hrs
Salmonella typhimurium [32] = assay: Antimicrobial activity against Salmonella typhimurium 14028 assessed as bacterial killing measured after 16 hrs incubation; assay type: functional, Salmonella enterica subsp. enterica serovar Typhimurium; conditions: Salmonella enterica
Escherichia coli [33] = assay: Antimicrobial activity against Escherichia coli 25922 assessed as absence bacterial growth measured after 18 to 24 hrs incubation in presence of 25% serum by NCCLS method; assay type: functional; conditions: time 18-24 hrs
Erythrocyte = assay: Hemolytic activity in human RBC at effective concentration measured after 1 hr by microplate reader analysis; assay type: toxicity, cell-based
Bacillus cereus [34] = assay: Antimicrobial activity against Bacillus cereus 1.932 assessed as absence bacterial growth measured after 18 to 24 hrs incubation by NCCLS method; assay type: functional; conditions: time 18-24 hrs
Bacillus cereus [35] = assay: Antimicrobial activity against Bacillus cereus 1.932 assessed as bacterial killing measured after 16 hrs incubation; assay type: functional
[36] = tested on: Staphylococcus epidermidis; assay: Antimicrobial activity against Staphylococcus epidermidis 12228 assessed as absence bacterial growth measured after 18 to 24 hrs incubation by NCCLS method; assay type: functional; conditions: time 18-24 hrs
Escherichia coli [37] = assay: Antimicrobial activity against Escherichia coli 25922 assessed as bacterial killing measured after 16 hrs incubation; assay type: functional
Staphylococcus aureus [38] = assay: Antimicrobial activity against Staphylococcus aureus 29213 assessed as bacterial killing measured after 16 hrs incubation; assay type: functional
Escherichia coli [39] = assay: Antimicrobial activity against Escherichia coli K88 assessed as bacterial killing measured after 16 hrs incubation; assay type: functional
Escherichia coli [40] = assay: Antimicrobial activity against Escherichia coli 25922 assessed as absence bacterial growth measured after 18 to 24 hrs incubation by NCCLS method; assay type: functional; conditions: time 18-24 hrs
[41] = Cytotoxicity against human HEK-293T cells assessed as cell survival rate measured after 8 hrs by MTT assay; assay type: toxicity, cell-based

Substance: H-CKLWLKGGKLWLKGGKLWLKG-NH2
- MBC (Salmonella typhimurium [1]): > 32 µM
- MIC (Salmonella typhimurium [2]): > 32 µM
- hemolysis at 1 h, 128 µM [3]: < 10%
- MBC (Enterococcus faecalis [4]): > 32 µM
- MIC (Staphylococcus aureus [5]): > 32 µM
- MIC (Enterococcus faecalis [6]): > 32 µM
- MIC (Escherichia coli [7]): > 32 µM
- MBC (Listeria monocytogenes [8]): > 32 µM
- MIC (Escherichia coli [9]): > 32 µM
- MIC (Listeria monocytogenes [10]): > 32 µM
- MIC (Escherichia coli [11]): > 32 µM
- MIC (Escherichia coli [12]): > 32 µM
- MIC [13]: 2 µM
- MIC (Acinetobacter baumannii [14]): > 32 µM
- MIC (Salmonella typhimurium [15]): > 32 µM
- IC50 at 8 h [16]: 14.3 µM
- MBC [17]: > 32 µM
- MIC (Escherichia coli [18]): 2 µM
- MBC (Acinetobacter baumannii [19]): > 32 µM
- MBC [20]: 2 µM
- MIC (Pseudomonas aeruginosa [21]): > 32 µM
- MBC (Staphylococcus aureus [22]): > 32 µM
- MIC (Escherichia coli [23]): > 32 µM
- MBC (Pseudomonas aeruginosa [24]): > 32 µM
- IC50 at 8 h [25]: 60.1 µM
- MIC (Staphylococcus aureus [26]): > 32 µM
- MIC (Escherichia coli [27]): > 32 µM
- MIC (Staphylococcus aureus [28]): > 32 µM
- MIC (Escherichia coli [29]): 32 µM
- MBC (Staphylococcus aureus [30]): > 32 µM
- MIC (Escherichia coli [31]): > 32 µM
- MBC (Salmonella typhimurium [32]): > 32 µM
- MIC (Escherichia coli [33]): > 32 µM
- HC10 (Erythrocyte): > 128 µM
- MIC (Bacillus cereus [34]): > 32 µM
- MBC (Bacillus cereus [35]): > 32 µM
- MIC [36]: > 32 µM
- MBC (Escherichia coli [37]): > 32 µM
- MBC (Staphylococcus aureus [38]): > 32 µM
- MBC (Escherichia coli [39]): 2 µM
- MIC (Escherichia coli [40]): > 32 µM
- IC50 at 8 h [41]: > 64 µM

Substance: H-AKLWLKGGKLWLKGGKLWLKG-NH2
- MBC (Salmonella typhimurium [1]): 32 µM
- MIC (Salmonella typhimurium [2]): 16 µM
- hemolysis at 1 h, 128 µM [3]: < 10%
- MBC (Enterococcus faecalis [4]): > 32 µM
- MIC (Staphylococcus aureus [5]): > 32 µM
- MIC (Enterococcus faecalis [6]): > 32 µM
- MIC (Escherichia coli [7]): 4 µM
- MBC (Listeria monocytogenes [8]): > 32 µM
- MIC (Escherichia coli [9]): > 32 µM
- MIC (Listeria monocytogenes [10]): > 32 µM
- MIC (Escherichia coli [11]): > 32 µM
- MIC (Escherichia coli [12]): 4 µM
- MIC [13]: 2 µM
- MIC (Acinetobacter baumannii [14]): 16 µM
- MIC (Salmonella typhimurium [15]): 4 µM
- IC50 at 8 h [16]: > 64 µM
- MBC [17]: > 32 µM
- MIC (Escherichia coli [18]): 1 µM
- MBC (Acinetobacter baumannii [19]): 16 µM
- MBC [20]: 2 µM
- MIC (Pseudomonas aeruginosa [21]): > 32 µM
- MBC (Staphylococcus aureus [22]): > 32 µM
- MIC (Escherichia coli [23]): 4 µM
- MBC (Pseudomonas aeruginosa [24]): > 32 µM
- IC50 at 8 h [25]: > 64 µM
- MIC (Staphylococcus aureus [26]): > 32 µM
- MIC (Escherichia coli [27]): 4 µM
- MIC (Staphylococcus aureus [28]): > 32 µM
- MIC (Escherichia coli [29]): > 32 µM
- MBC (Staphylococcus aureus [30]): > 32 µM
- MIC (Escherichia coli [31]): 16 µM
- MBC (Salmonella typhimurium [32]): 16 µM
- MIC (Escherichia coli [33]): > 32 µM
- HC10 (Erythrocyte): > 128 µM
- MIC (Bacillus cereus [34]): > 32 µM
- MBC (Bacillus cereus [35]): > 32 µM
- MIC [36]: > 32 µM
- MBC (Escherichia coli [37]): 8 µM
- MBC (Staphylococcus aureus [38]): > 32 µM
- MBC (Escherichia coli [39]): 1 µM
- MIC (Escherichia coli [40]): 4 µM
- IC50 at 8 h [41]: > 64 µM
